These are literature values, as cited in patent publication US20260014155A1, “TICAGRELOR SOLID DISPERSION, METHOD FOR PREPARING SAME, AND USE THEREOF” (WISDOM PHARMACEUTICAL CO., LTD., priority 2022, published 2026).

For the data set the following is noted: low solubility and low permeability.

Each structure is given as a SMILES string.

Take `CCCSc1nc(N[C@@H]2C[C@H]2c2ccc(F)c(F)c2)c2nnn([C@@H]3C[C@H](OCCO)[C@@H](O)[C@H]3O)c2n1` [ticagrelor, (1S,2S,3R,5S)-3-[7-{[(1R,2S)-2-(3,4-difluorophenyl)cyclopropyl]amino}-5-(propylthio)-3H-[1,2,3]-triazolo[4,5-d]pyrimidin-3-yl]-5-(2-hydroxyethoxy)cyclopentane-1,2-diol]: the biopharmaceutical classification result was “BCS class 4”.
